Results: ChEMBL document CHEMBL1156884, “Improvement of physiochemical properties of the tetrahydroazepinoindole series of farnesoid X receptor (FXR) agonists: beneficial modulation of lipids in primates” (J Med Chem, 2010)
≈ marks a conversion by molar mass, not a printed value.

Assays:
[1] = Equilibrium solubility in 0.5% methylcellulose/2% Tween-80 in water; assay type: physicochemical
[2] = Tmax in C57 mouse at 30 mg/kg, po; assay type: ADME, organism-based; parameters: dose 30 mg/kg, route oral; conditions: in vivo
[3] = Tmax in Sprague-Dawley rat 30 mg/kg, po; assay type: ADME, organism-based; parameters: dose 30 mg/kg, route oral; conditions: in vivo
[4] = AUC (0 to infinity) in C57 mouse at 30 mg/kg, po; assay type: ADME, organism-based; parameters: time infinity, dose 30 mg/kg, route oral; conditions: plasma
Rattus norvegicus [5] = experiment: (§1) AUC (0 to infinity) in Sprague-Dawley rat at 3 mg/kg, iv; assay type: ADME, organism-based, Plasma; parameters: time infinity, dose 3 mg/kg, route intravenous; conditions: in vivo
[6] = Cmax in C57 mouse at 30 mg/kg, po; assay type: ADME, organism-based; parameters: dose 30 mg/kg, route oral; conditions: in vivo
[7] = Cmax in Sprague-Dawley rat at 30 mg/kg, po; assay type: ADME, organism-based; parameters: dose 30 mg/kg, route oral; conditions: in vivo
[8] = Oral bioavailability in C57 mouse at 30 mg/kg; assay type: ADME, organism-based; conditions: in vivo
Rattus norvegicus [9] = experiment: Oral bioavailability in Sprague-Dawley rat at 30 mg/kg; assay type: ADME, organism-based; conditions: in vivo
Rattus norvegicus [10] = experiment: AUC (0 to infinity) in Sprague-Dawley rat at 30 mg/kg, po; assay type: ADME, organism-based, Plasma; parameters: time infinity, dose 30 mg/kg, route oral; conditions: in vivo
[11] = AUC (0 to infinity) in C57 mouse at 3 mg/kg, iv; assay type: ADME, organism-based; parameters: time infinity, dose 3 mg/kg, route intravenous; conditions: plasma
[12] = AUC (0 to infinity) in Sprague-Dawley rat at 3 mg/kg, po; assay type: ADME, organism-based; parameters: time infinity, dose 3 mg/kg, route oral; conditions: plasma
[13] = Cmax in Sprague-Dawley rat at 3 mg/kg, po; assay type: ADME, organism-based; parameters: dose 3 mg/kg, route oral; conditions: in vivo
[14] = Oral bioavailability in Sprague-Dawley rat 3 mg/kg; assay type: ADME, organism-based; conditions: in vivo
[15] = as §1; assay type: ADME, organism-based, Plasma; parameters: time infinity, dose 3 mg/kg, route intravenous; conditions: Sprague-Dawley, plasma
[16] = AUC (0 to infinity) in C57 mouse at 3 mg/kg, po; assay type: ADME, organism-based; parameters: time infinity, dose 3 mg/kg, route oral; conditions: plasma
[17] = Tmax in C57 mouse at 3 mg/kg, po; assay type: ADME, organism-based; parameters: dose 3 mg/kg, route oral; conditions: in vivo
[18] = Cmax in C57 mouse at 3 mg/kg, po; assay type: ADME, organism-based; parameters: dose 3 mg/kg, route oral; conditions: in vivo
[19] = Tmax in Sprague-Dawley rat 3 mg/kg, po; assay type: ADME, organism-based; parameters: dose 3 mg/kg, route oral; conditions: in vivo

solubility thermodynamic [1]	other results	SMILES
80 µg/mL (≈ 151 µM)	–	CC(C)OC(=O)C1=CN(C(=O)c2ccc(OCCN3CCCCC3)cc2)CC(C)(C)c2c1[nH]c1ccccc21
1740 µg/mL (≈ 3110 µM)	–	CC(C)OC(=O)C1=CN(C(=O)c2cccc(OCCCN3CCN(C)CC3)c2)CC(C)(C)c2c1[nH]c1ccccc21
24 µg/mL (≈ 46.5 µM)	–	CC(C)OC(=O)C1=CN(C(=O)c2ccc(OCCN3CCCC3)cc2)CC(C)(C)c2c1[nH]c1ccccc21
> 6000 µg/mL	–	CC(C)OC(=O)C1=CN(C(=O)c2ccc(OCCN3CCOCC3)cc2)CC(C)(C)c2c1[nH]c1cc(F)ccc21.Cl
1140 µg/mL (≈ 2040 µM)	–	CC(C)OC(=O)C1=CN(C(=O)c2ccc(OCCCN3CCN(C)CC3)cc2)CC(C)(C)c2c1[nH]c1ccccc21
17 µg/mL (≈ 34.7 µM)	–	CC(C)OC(=O)C1=CN(C(=O)c2ccc(OCCN(C)C)cc2)CC(C)(C)c2c1[nH]c1ccccc21
200 µg/mL (≈ 367 µM)	–	CC(C)OC(=O)C1=CN(C(=O)c2ccc(OCCCN3CCOCC3)cc2)CC(C)(C)c2c1[nH]c1ccccc21
118 µg/mL (≈ 216 µM)	–	CC(C)OC(=O)C1=CN(C(=O)c2cccc(OCCCN3CCOCC3)c2)CC(C)(C)c2c1[nH]c1ccccc21
5920 µg/mL	–	CC(C)OC(=O)C1=CN(C(=O)c2ccc(OCCCN3CCOCC3)cc2)CC(C)(C)c2c1[nH]c1cc(F)ccc21.Cl
536 µg/mL (≈ 1090 µM)	–	CC(C)OC(=O)C1=CN(C(=O)c2cccc(OCCN(C)C)c2)CC(C)(C)c2c1[nH]c1ccccc21
2470 µg/mL (≈ 4900 µM)	–	CC(C)OC(=O)C1=CN(C(=O)c2ccc(OCCCN(C)C)cc2)CC(C)(C)c2c1[nH]c1ccccc21
280 µg/mL (≈ 509 µM)	Tmax [2]: 1 h; Tmax [3]: 1.7 h; AUC(0-inf) [4]: 6700 ng·h/mL; AUC (Rattus norvegicus [5]): 781 ng·h/mL; Cmax [6]: 1130 ng/mL; Cmax [7]: 35 ng/mL; bioavailability [8]: 53%; F (Rattus norvegicus [9]): 25%; AUC (Rattus norvegicus [10]): 193 ng·h/mL; AUC(0-inf) [11]: 1260 ng·h/mL	CC(C)OC(=O)C1=CN(C(=O)c2ccc(OCCN3CCOCC3)cc2)CC(C)(C)c2c1[nH]c1cc(F)ccc21
1040 µg/mL (≈ 1920 µM)	–	CC(C)OC(=O)C1=CN(C(=O)c2cccc(OCCCN3CCCCC3)c2)CC(C)(C)c2c1[nH]c1ccccc21
380 µg/mL (≈ 731 µM)	–	CC(C)OC(=O)C1=CN(C(=O)c2ccc(CN3CCOCC3)cc2)CC(C)(C)c2c1[nH]c1cc(F)ccc21
2330 µg/mL (≈ 4400 µM)	–	CC(C)OC(=O)C1=CN(C(=O)c2ccc(OCCCN3CCCC3)cc2)CC(C)(C)c2c1[nH]c1ccccc21
80 µg/mL (≈ 150 µM)	–	CC(C)OC(=O)C1=CN(C(=O)c2ccc(OCCN3CCOCC3)cc2)CC(C)(C)c2c1[nH]c1ccccc21
82 µg/mL (≈ 151 µM)	–	CC(C)OC(=O)C1=CN(C(=O)c2ccc(OCCN3CCN(C)CC3)cc2)CC(C)(C)c2c1[nH]c1ccccc21
1220 µg/mL (≈ 2240 µM)	–	CC(C)OC(=O)C1=CN(C(=O)c2ccc(OCCCN3CCCCC3)cc2)CC(C)(C)c2c1[nH]c1ccccc21
155 µg/mL (≈ 292 µM)	–	CC(C)OC(=O)C1=CN(C(=O)c2cccc(OCCN3CCOCC3)c2)CC(C)(C)c2c1[nH]c1ccccc21
250 µg/mL (≈ 444 µM)	AUC(0-inf) [12]: 361 ng·h/mL; Cmax [13]: 68 ng/mL; bioavailability [14]: 38%; AUC(0-inf) [15]: 960 ng·h/mL; AUC(0-inf) [16]: 370 ng·h/mL; AUC(0-inf) [11]: 1720 ng·h/mL; Tmax [17]: 1 h; Cmax [18]: 81 ng/mL; Tmax [19]: 2 h	CC(C)OC(=O)C1=CN(C(=O)c2ccc(OCCCN3CCOCC3)cc2)CC(C)(C)c2c1[nH]c1cc(F)ccc21
245 µg/mL (≈ 488 µM)	–	CC(C)OC(=O)C1=CN(C(=O)c2ccc(CN3CCOCC3)cc2)CC(C)(C)c2c1[nH]c1ccccc21
111 µg/mL (≈ 210 µM)	–	CC(C)OC(=O)C1=CN(C(=O)c2cccc(OCCN3CCCCC3)c2)CC(C)(C)c2c1[nH]c1ccccc21
